Results published in patent US20150337013A1, “NOVEL ANTIBACTERIAL AGENTS FOR THE TREATMENT OF GRAM POSITIVE INFECTIONS” (priority 2008, published 2015).
Where “and” joins values, the source holds several entries; their conditions need not be identical. Equal values may be shown once.

Tests used:
gram positive bacteria = test: Antimicrobial activity against a panel of organisms, summary statements; format: cell-based; conditions: statement in words
Procedure: (§1) Compounds according to Formula I were tested for antimicrobial activity against a panel of organisms. Aerobic organisms, Staphylococcus aureus, Enterococcus faecalis and E. faecium, were tested by broth microdilution according to Clinical and Laboratory Standards Institute (CLSI) document M7-A7 (Clinical and Laboratory Standards Institute. Methods for Dilution Antimicrobial Susceptibility Tests for Bacteria that Grow Aerobically; Approved Standard—Seventh Edition. CLSI document M7-A7 [ISBN 1-56238-587-9]. Clinical and Laboratory Standards Institute, 940 West Valley Road, Suite 1400, Wayne, Pa. 19087-1898 USA, 2006) with modifications as described below. Mueller Hinton Broth (MHBc) was supplemented with 50 mg/L calcium (equivalent to human physiological levels of calcium) and assay plates were incubated 18-20 hours at 37° C. with aeration (200 rpm).
(§2) In all cases the final concentration of dimethyl sulfoxide incubated with cells is less than or equal to 1%. For minimum inhibitory concentration (MIC) calculations, 2-fold dilutions of compounds were added to wells of a microtiter plate containing 5×10^5 bacteria in a final volume of 100 μL of media. Following incubation, (18-20 hours at 37° C. with aeration at 200 rpm) growth was confirmed visually by placing plates over a viewing apparatus (stand with a mirror underneath) and then the optical density (OD600) was measured using a SpectraMax 340PC^384 plate reader. Growth was defined as turbidity that could be detected with the naked eye or achieving minimum OD600of 0.1. MIC values (in μg/mL) were defined as the lowest concentration producing no visible turbidity.

[1] = system: C. difficile spores (ATCC #43596); test: Hamster C. difficile infection (CDAD) protection model; format: in vivo, Syrian golden hamsters; conditions: oral 0.5 mg/kg once daily for 5 days (MET 70 mg/kg three times daily for 5 days)
Procedure: Syrian golden hamsters were pretreated with 10 mg/kg clindamycin subcutaneously 24 hours before bacterial challenge. An inoculum of 20 C. difficile spores (ATCC #43596) in sterile saline was administered orally. Treatment was initiated 4 hours post-inoculation with dH2O, metronidazole (MET), vancomycin (VAN), or a compound of the present invention. Oral dosing regimens for VAN and compounds of Formula I were 0.5 mg/kg once daily for 5 days. MET was administered at 70 mg/kg three times daily for 5 days. CDAD was confirmed as the cause of death by observations at necropsy, including wet tail and/or macroscopic cecal alterations. The % protection provided by each therapy tested was calculated at 1 and 21 days post-dosing.

[2] = system: Staphylococcus aureus SAU.278, Daptomycin resistant mutant (D10); format: cell-based; conditions: MHBc with 50 mg/L calcium, 18-20 hours at 37° C.
Outline: (§3)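 Broth microdilution per CLSI M7-A7 in Mueller Hinton broth supplemented with 50 mg/L calcium; 2-fold compound dilutions, 5×10^5 bacteria per well, DMSO ≤1% final, 18-20 h at 37° C with aeration (200 rpm). MIC (μg/mL) = lowest concentration with no visible turbidity (growth: visible turbidity or OD600 ≥0.1).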

[3] = system: Enterococcus faecalis EFS.312, Daptomycin resistant mutant (EFA); format: cell-based; conditions: MHBc with 50 mg/L calcium, 18-20 hours at 37° C.
Outline: as §3

[4] = system: Enterococcus faecium EFM.384, Daptomycin resistant mutant (14-A); format: cell-based; conditions: MHBc with 50 mg/L calcium, 18-20 hours at 37° C.
Outline: as §3

[5] = system: Staphylococcus aureus SAU.42 (ATCC 29213); format: cell-based; conditions: ATCC 29213
Outline: as §3

[6] = system: daptomycin resistant Staph. aureus (DRSA), daptomycin resistant E. faecium (DREfm) and daptomycin resistance E. faecalis (DREfs); test: Activity against daptomycin resistant bacteria, summary statement; format: cell-based; conditions: statement in words
Procedure: as §1, §2

[7] = system: Enterococcus faecalis EFS.201 (ATCC 49452); format: cell-based; conditions: ATCC 49452
Outline: as §3

[8] = system: Enterococcus faecium EFM.14 (ATCC 6569); format: cell-based; conditions: ATCC 6569
Outline: as §3

[9] = system: Staphylococcus aureus SAU.399 (ATCC 43300), Methicillin and Oxacillin Resistant; format: cell-based; conditions: ATCC 43300
Outline: as §3

Compound: CCCCCC1CCC(C(=O)N[C@@H](Cc2c[nH]c3ccccc23)C(=O)N[C@H](CC(N)=O)C(=O)N[C@@H](CC(=O)O)C(=O)N[C@@H]2C(=O)NCC(=O)N[C@@H](CCCN)C(=O)N[C@@H](CC(=O)O)C(=O)N[C@H](C)C(=O)N[C@@H](CC(=O)O)C(=O)NCC(=O)N[C@H](CO)C(=O)N[C@@H]([C@H](C)CC(=O)O)C(=O)N[C@@H](CC(=O)c3ccccc3N)C(=O)O[C@@H]2C)CC1 (some centres unmarked) [Compound 16]
- as active or more active than daptomycin (gram positive bacteria): as active or more active than daptomycin
- Mean % Protection 1 Day Post Dosing [1]: 100%
- Mean % Protection 21 Days Post Dosing [1]: 85%
- Sa278 MIC [2]: 8 µg/mL
- Efs312 MIC [3]: 16 µg/mL and >32 µg/mL
- Efm384 MIC [4]: 32 µg/mL and 16 µg/mL
- Sa42 MIC [5]: 0.5 µg/mL

Compound: C[C@H](CC(=O)O)[C@@H]1NC(=O)[C@@H](CO)NC(=O)CNC(=O)[C@H](CC(=O)O)NC(=O)[C@@H](C)NC(=O)[C@H](CC(=O)O)NC(=O)[C@H](CCCN)NC(=O)CNC(=O)[C@@H](NC(=O)[C@H](CC(=O)O)NC(=O)[C@@H](CC(N)=O)NC(=O)[C@H](Cc2c[nH]c3ccccc23)NC(=O)C2CCCCCCCCCCC2)[C@@H](C)OC(=O)[C@H](CC(=O)c2ccccc2N)NC1=O [Compound 28, N-cyclododecanecarbonyl-L-tryptophyl-D-asparaginyl-L-α-aspartyl-L-threonylglycyl-L-ornithyl-L-α-aspartyl-D-alanyl-L-α-aspartylglycyl-D-seryl-(3R)-3-methyl-L-α-glutamyl-(αS)-α,2-diamino-γ-oxobenzenebutanoic acid (13→4)-lactone]
- as active or more active than daptomycin (gram positive bacteria): as active or more active than daptomycin
- Mean % Protection 1 Day Post Dosing [1]: 100%
- Mean % Protection 21 Days Post Dosing [1]: 100%
- C. diff MIC90 (Clostridium difficile): 4 µg/mL
- Sa278 MIC [2]: 4 µg/mL and 8 µg/mL
- Efs312 MIC [3]: >32 µg/mL
- Efm384 MIC [4]: 32 µg/mL

Compound: CCCCc1ccc(/C(C)=C/C(=O)N[C@@H](Cc2c[nH]c3ccccc23)C(=O)N[C@H](CC(N)=O)C(=O)N[C@@H](CC(=O)O)C(=O)N[C@@H]2C(=O)NCC(=O)N[C@@H](CCCN)C(=O)N[C@@H](CC(=O)O)C(=O)N[C@H](C)C(=O)N[C@@H](CC(=O)O)C(=O)NCC(=O)N[C@H](CO)C(=O)N[C@@H]([C@H](C)CC(=O)O)C(=O)N[C@@H](CC(=O)c3ccccc3N)C(=O)O[C@@H]2C)cc1 [Compound 48, N-{1-[(E)-3-(4-butylphenyl)but-2-enoyl]}-L-tryptophyl-D-asparaginyl-L-α-aspartyl-L-threonylglycyl-L-ornithyl-L-α-aspartyl-D-alanyl-L-α-aspartylglycyl-D-seryl-(3R)-3-methyl-L-α-glutamyl-(αS)-α,2-diamino-γ-oxobenzenebutanoic acid (13→4)-lactone]
- as active or more active than daptomycin (gram positive bacteria): as active or more active than daptomycin
- useful against daptomycin resistant strains of bacteria [6]: useful against daptomycin resistant strains of bacteria
- C. diff MIC90 (Clostridium difficile): 2 µg/mL
- Sa278 MIC [2]: 2 µg/mL and 4 µg/mL
- Efs312 MIC [3]: >32 µg/mL and 32 µg/mL
- Efm384 MIC [4]: 32 µg/mL
- Efs201 MIC [7]: 1 µg/mL
- Efm14 MIC [8]: 2 µg/mL

Compound: CCCCCCc1ccc(/C(C)=C/C(=O)N[C@@H](Cc2c[nH]c3ccccc23)C(=O)N[C@H](CC(N)=O)C(=O)N[C@@H](CC(=O)O)C(=O)N[C@@H]2C(=O)NCC(=O)N[C@@H](CCCN)C(=O)N[C@@H](CC(=O)O)C(=O)N[C@H](C)C(=O)N[C@@H](CC(=O)O)C(=O)NCC(=O)N[C@H](CO)C(=O)N[C@@H]([C@H](C)CC(=O)O)C(=O)N[C@@H](CC(=O)c3ccccc3N)C(=O)O[C@@H]2C)cc1 [Compound 50, N-{1-[(E)-3-(4-hexylphenyl)but-2-enoyl]}-L-tryptophyl-D-asparaginyl-L-α-aspartyl-L-threonylglycyl-L-ornithyl-L-α-aspartyl-D-alanyl-L-α-aspartylglycyl-D-seryl-(3R)-3-methyl-L-α-glutamyl-(αS)-α,2-diamino-γ-oxobenzenebutanoic acid (13→4)-lactone]
- as active or more active than daptomycin (gram positive bacteria): as active or more active than daptomycin
- more active against bacteria than daptomycin (gram positive bacteria): more effective than daptomycin
- useful against daptomycin resistant strains of bacteria [6]: useful against daptomycin resistant strains of bacteria
- C. diff MIC90 (Clostridium difficile): 0.5 µg/mL
- Sa278 MIC [2]: 1 µg/mL
- Efs312 MIC [3]: 4 µg/mL
- Efm384 MIC [4]: 4 µg/mL
- Efs201 MIC [7]: 0.25 µg/mL
- Sa399 MIC [9]: 0.5 µg/mL
- Efm14 MIC [8]: 1 µg/mL

Compound: CCCCCOc1ccc(-c2ccc(C(=O)N[C@@H](Cc3c[nH]c4ccccc34)C(=O)N[C@H](CC(N)=O)C(=O)N[C@@H](CC(=O)O)C(=O)N[C@@H]3C(=O)NCC(=O)N[C@@H](CCCN)C(=O)N[C@@H](CC(=O)O)C(=O)N[C@H](C)C(=O)N[C@@H](CC(=O)O)C(=O)NCC(=O)N[C@H](CO)C(=O)N[C@@H]([C@H](C)CC(=O)O)C(=O)N[C@@H](CC(=O)c4ccccc4N)C(=O)O[C@@H]3C)cc2)cc1 [Compound 61, N-[4′-(pentyloxy)biphenyl-4-carbonyl]-L-tryptophyl-D-asparaginyl-L-α-aspartyl-L-threonylglycyl-L-ornithyl-L-α-aspartyl-D-alanyl-L-α-aspartylglycyl-D-seryl-(3R)-3-methyl-L-α-glutamyl-(αS)-α,2-diamino-γ-oxobenzenebutanoic acid (13→4)-lactone]
- as active or more active than daptomycin (gram positive bacteria): as active or more active than daptomycin
- more active against bacteria than daptomycin (gram positive bacteria): more effective than daptomycin
- useful against daptomycin resistant strains of bacteria [6]: useful against daptomycin resistant strains of bacteria
- C. diff MIC90 (Clostridium difficile): 2 µg/mL
- Efs312 MIC [3]: 4 µg/mL
- Efm384 MIC [4]: 2 µg/mL and 1 µg/mL
- Efm14 MIC [8]: 0.5 µg/mL

Compound: CN[C@H](CC(C)C)C(=O)N[C@H]1C(=O)N[C@@H](CC(N)=O)C(=O)N[C@H]2C(=O)N[C@H]3C(=O)N[C@H](C(=O)N[C@H](C(=O)O)c4cc(O)cc(O)c4-c4cc3ccc4O)[C@H](O)c3ccc(c(Cl)c3)Oc3cc2cc(c3O[C@@H]2O[C@H](CO)[C@@H](O)[C@H](O)[C@H]2O[C@H]2C[C@](C)(N)[C@H](O)[C@H](C)O2)Oc2ccc(cc2Cl)[C@H]1O [Vancomycin, vancomycin, reference compound]
- Mean % Protection 1 Day Post Dosing [1]: 90%
- Mean % Protection 21 Days Post Dosing [1]: 62%
